From article PMC3653948, “PDZ Domain-Mediated Interactions of G Protein-Coupled Receptors with Postsynaptic Density Protein 95: Quantitative Characterization of Interactions” (PLoS ONE, 2013)
Peptide text beside a SMILES is read from it.

Experiments:
PSD-95 PDZ1 = target: T1, PSD-95 PDZ1 (Homo sapiens, UniProt P78352); assay: SPR steady-state binding to immobilized PSD-95 PDZ1
T1 construct: PSD-95 PDZ1 (aa 61–151); made in house; host or cells: E. coli One Shot BL21 Star (DE3)
Excerpt: (§1) To confirm the affinities measured by FP using an orthogonal method and to get information about the kinetics of the GPCR–PDZ interactions, we used SPR. This label-free, surface sensitive technique measures the binding of a ligand to an immobilized protein as a function of time based on refractive index changes.
(§2) For each of the PSD-95 PDZ domains, we determined the K d and the stability of the complexes for selected GPCR C-tail peptides. The residence time τ ( = 1/k d) was used as a convenient measure of the stability of the complexes. […] The K d determined from the steady-state responses of a range of C-tail peptide concentrations (Figure 2B and Table S4) correlated well with the K i values obtained by FP (Figure S1).
(§3) A Biacore X100 (GE Healthcare) SPR instrument equilibrated to 25.0°C and equipped with a Sensor Chip CM5 (for PDZ1 and PDZ2) or CM4 (for PDZ3) (GE Healthcare) was used for the SPR measurements. The running buffer was HBS-EP+ (10 mM HEPES pH 7.4, 150 mM NaCl, 3 mM EDTA, 0.05% Surfactant P-20 (GE Healthcare)).
PDZ domains were immobilized by amine coupling at a flow rate of 5 µl/min on a surface activated by a 7 min injection of a 1∶1 mixture of 0.4 M 1-ethyl-3-(3-dimethylaminopropyl) carbodiimide (EDC) and 0.1 M N-hydroxysuccinimide (NHS). The remaining active groups were deactivated by a 7 min injection of 1 M ethanolamine HCl pH 8.5. 750 RU PDZ1, 780 RU PDZ2, and 410 RU PDZ3 were immobilized.
GPCR C-tail peptide samples were injected in increasing concentrations for 1 min with 1 min dissociation time at 30 µl/min. Reproducibility was tested by injecting the 20 µM sample again after the highest concentration sample. The binding curves were corrected by subtraction of buffer blanks and the response from a reference surface that was activated with EDC and NHS and deactivated with ethanolamine like the surface with immobilized PDZ domain. For peptides with a cysteine, 1 mM dithiothreitol (DTT) was added to the samples. Steady-state response curves were plotted from the responses 10 s before injection end. The K d was determined by fitting steady-state response curves to a 1∶1 binding model with a linear component to corrrect for low affinity binding, probably resulting from the immobilization: Y = Ymax × X/(X+K d)+B × X.

PSD-95 PDZ2 = target: T2, PSD-95 PDZ2 (Homo sapiens, UniProt P78352); assay: SPR steady-state binding to immobilized PSD-95 PDZ2
T2 construct: PDZ2 (aa 155–249); made in house; host or cells: E. coli One Shot BL21 Star (DE3)
Excerpt: as §1, §2
as §3, with “Healthcare)). […]” for “Healthcare)).”
(§4) GPCR C-tail peptide samples were injected in increasing concentrations for 1 min with 1 min dissociation time at 30 µl/min. […] The K d was determined by fitting steady-state response curves to a 1∶1 binding model with a linear component to corrrect for low affinity binding, probably resulting from the immobilization: Y = Ymax × X/(X+K d)+B × X.

PSD-95 PDZ domains = assay: Time-resolved SPR, PSD-95 PDZ domains (kinetics); format: binding; conditions: 500 µM C-tail peptide, all three PDZ domains
Excerpt: as §2
For all combinations of PDZ domains and GPCR C-tail peptides, we observed dissociation of the complexes within the first second of the dissociation phase (Figure 2A) (faster than the time-resolution of the instrument), meaning that τ is less than 1 s (k d >1 s^−1). This implies that the GPCR–PDZ complexes are very transient, which is in agreement with previous work.
A Biacore X100 (GE Healthcare) SPR instrument equilibrated to 25.0°C and equipped with a Sensor Chip CM5 (for PDZ1 and PDZ2) or CM4 (for PDZ3) (GE Healthcare) was used for the SPR measurements. […]
as §4

PSD-95 PDZ3 = target: T3, PSD-95 PDZ3 (Homo sapiens, UniProt P78352); assay: SPR steady-state binding to immobilized PSD-95 PDZ3
T3 construct: made in house; host or cells: E. coli One Shot BL21 Star (DE3)
Excerpt: as §1, §2
as §3, with “Healthcare)). […]” for “Healthcare)).”
as §4

PSD-95 = assay: FP competition assay, PSD-95 PDZ domains overall (strongest binding domain / non-binders); conditions: FP competition with the isolated PDZ domains, peptide typically 1–512 µM
Method: We used a competition set-up, where a constant concentration of isolated PSD-95 PDZ domain and a labeled reference ligand was titrated with unlabeled peptides from the GPCR C-tail library, typically within a 1–512 µM concentration range, and the resulting curves were fitted to obtain the IC50, which was used to calculate the K i (Figure 1). Three Cy5-labeled peptides with well-documented interactions with PSD-95 were used as reference ligands for the competition assay: Cy5-KIF1Bα was used for PDZ1 [20], Cy5-GluN2B (formerly known as NR2B) was used for PDZ2 and PDZ1-2 [21], and Cy5-CRIPT was used for PDZ3 [22] (Table S1). Competition with unlabeled versions of the reference ligands was used to validate the FP assay by comparison with the literature (Table S2).
FP measurements were performed in black, flat bottom 384-well NBS microplates (Corning) on a Synergy H4 microplatereader (BioTek Instruments) equipped with a 620/40 nm excitation filter, a 680/30 nm emission filter, and a 660 nm dichroic mirror. Polarization values were corrected with blank samples and samples with fluorescent probe alone. At least 10 data points were measured for each curve, and each data point was measured in triplicate. 25 nM Cy5-labeled probe was used for each assay: Cy5-KIF1Bα for PDZ1, Cy5-GluN2B for PDZ2 and PDZ1-2, and Cy5-CRIPT for PDZ3. All FP measurements were performed in a buffer containing 10 mM HEPES pH 7.4, 150 mM NaCl, and 1% BSA and incubated at least 15 min at room temperature before reading. The signal was stable for more than an hour, showing that the reaction was at equilibrium.
For the competition binding curves, probe was mixed with a constant concentration of PDZ protein corresponding to the K d and a twofold dilution series of unlabeled peptide in a total volume of 30 µl. The baseline was determined using a sample containing only probe. The IC50 was determined by fitting to a 1∶1 binding model: Y = Ymax − Ymax × X/(X+IC50). The K i was calculated from the IC50 and from the K d for the interaction between the PDZ protein and the probe as described previously.

Compound: CC[C@H](C)[C@H](NC(=O)[C@H](CO)NC(=O)[C@H](CO)NC(=O)[C@H](CCC(=O)O)NC(=O)[C@@H](NC(=O)[C@H](Cc1c[nH]c2ccccc12)NC(=O)[C@H](C)NC(=O)[C@H](CCCNC(=N)N)NC(=O)[C@H](CCCNC(=N)N)NC(=O)[C@H](CC(=O)O)NC(=O)[C@@H](N)CC(=O)O)[C@@H](C)O)C(=O)N[C@@H](CC(N)=O)C(=O)N[C@H](C(=O)O)[C@@H](C)O (H-DDRRAWTESSINT-OH; N-terminus assumed)
- Kd (PSD-95 PDZ1): > 1000 µM
- Kd (PSD-95 PDZ2): > 1000 µM
- Time-resolved binding to PSD-95 PDZ1, PDZ2 and PDZ3 by SPR (PSD-95 PDZ domains): did not interact
- Kd (PSD-95 PDZ3): > 1000 µM
- Interaction with PSD-95 using fluorescence polarization (PSD-95): not to interact
